From article PMC11227536, “Modulation of the Meisenheimer complex metabolism of nitro-benzothiazinones by targeted C-6 substitution” (Communications Chemistry, 2024)

Assays:
[1] = system: K-562; assay: Proliferation assay; format: cell-based; conditions: Homo sapiens, K562; 72 h, n = 4
Experimental: (§1) Supplementary Method 5: Biological Assays […]
(§2) 2. Proliferation and cytotoxicity assay
(§3) Cells and culture conditions
(§4) The following cell lines and media were used:
(§5) Cell line Cell culture medium
(§6) Cells were grown in the appropriate cell culture medium supplemented with 10 mL/L ultraglutamine 1 […]
(§7) heat inactivated fetal bovine serum (GIBCO Life Technologies 10270-106) at 37 °C in 5% CO 2 in high density polyethylene flasks (NUNC 156340).
(§8) To decide if the compounds have an antiproliferative and/or a cytotoxic effect on human cells, cell death and retardation of cell proliferation were assessed. Under our experimental conditions, the optical density measured from the CellTiter-Blue® reagent and methylene blue assay is proportional to the […]
(§9) The test substances were dissolved in DMSO and further diluted in the cell culture medium. The adherent cells were harvested at the logarithmic growth phase after soft trypsinization using 0.25% trypsin in PBS containing 0.02% EDTA (Biochrom KG L2163). For each experiment, approximately 10,000 cells were seeded with 0.1 mL culture medium per well of the 96-well microplates (HUVEC: flat bottomed NUNC 167008, K-562: round bottomed NUNC 163320). To test the antiproliferative […]
(§10) effect of test compounds on HUVEC and K-562, the cells were incubated for 72 hours in plates prepared with control and different dilutions of test substances. […]
(§11) of proliferation compared to the untreated control. […]
(§12) Cells were incubated with dilutions of the test substances in microplates for 72 hours at 37 °C in a humidified atmosphere and 5% CO 2. […]
cytotoxicity and the inhibition of cell proliferation. The number of viable cells was determined subsequent to staining with CellTiter-Blue® reagent or methylene blue.
K-562 cells: The influence of test substances on cell proliferation of K-562 was determined via the CellTiter-Blue® assay (PROMEGA). Briefly, viable cells are able to reduce the indicator dye resazurin […]
dye. Thus, formation of resorufin was followed by measuring absorption at 570 nm and subtracting absorption measured at 600 nm. […]
(§13) General remarks: Signals from the methylene blue and CellTiter-Blue® reagent are proportional to the number of viable cells. A repeat determination has been conducted in all experiments, four replicates were assayed. The calculations of the different values of GI 50 and CC 50 were performed with the software

[2] = system: HUVEC; assay: Proliferation assay; format: cell-based; conditions: Homo sapiens, 72 h, n = 4
Experimental: as §1, §2, §3, §4, §5, §6, §7, §8, §9, §10, §11, §12
cytotoxicity and the inhibition of cell proliferation. The number of viable cells was determined subsequent to staining with CellTiter-Blue® reagent or methylene blue. […]
HUVEC and HeLa cells: The adherent HUVEC and HeLa cells were fixed by glutaraldehyde (MERCK […]
gently washing, the stain was eluted by adding 0.2 mL of hydrochloric acid (0.33 M) to each well. The optical densities were measured at 660 nm (methylene blue) in SUNRISE microplate reader (TECAN).
as §13

[3] = Microsomal stability assay; format: in vitro ADME, human; conditions: pH 7.4; for CLint scaled at 1 µM: liver microsomes, scaled: 52.5 mg protein/g liver, 22.0 g liver/kg, human; for half-life at 1 µM: human liver microsomes, 37 °C
Experimental: 4. Microsomal stability assay
A microsomal stability assay was performed according to an internal standard procedure. Positive control compound diclofenac and three test items were freshly prepared as sub-dilutions in phosphate buffer (100 mM, pH 7.4) at concentrations of 200 µM and 20 µM, respectively. All incubations were conducted in triplicate in glass screw neck vials (1.5 mL, flat bottom, Macherey-Nagel, Düren, Germany) on a Thermomixer C (Eppendorf, Germany) at 37 °C and 1500 rpm. The incubation mixtures contained 270 µL human liver microsomes (HLM, 1.1 mg∙mL -1, UltraPool HLM 150, Corning B.V.
Life Science, Amsterdam, the Netherlands), 270 µL NADP regeneration mix (1 mM NADP, 5 mM glucose-6-phosphate, 5 units∙mL -1 glucose-6-phosphate dehydrogenase and 5 mM MgCl 2) and 30 µL phosphate buffer to reach a total volume of 570 µL. Negative controls were performed with heat inactivated (80 °C, 30 min) HLM solution. Reactions were initiated by addition of diclofenac or the test item solution (30 µL). Aliquots of 100 µL were taken at 1, 15, 30, 60, and 90 minutes and immediately processed with 100 µL acetonitrile at 4°C to terminate the reactions, and shaken for 2 minutes at 4°C with 1600 rpm. The mixed samples were further centrifuged for 2 minutes at 4 °C with 16.1 krcf. The supernatants were withdrawn and subjected to high resolution mass spectrometry analysis without […]
Analysis of microsomal stability assay
Samples were analyzed using a Vanquish Horizon UHPLC system (Thermo Fisher Scientific, Bremen, Germany) coupled to a Thermo Scientific QExactive HF-X Orbitrap mass spectrometer (Thermo Fisher Scientific, Bremen, Germany) using a UPLC column (ACQUITY HSS T3, Waters, 1.8 µm particle size, 2.1 × 50 mm dimensions) equipped with a pre-column (ACQUITY HSS T3 VanGuard Pre-column, Waters, 1.8 µm particle size, 2.1 × 5 mm dimensions). The column temperature was maintained at 25°C, and the samples were kept at 4°C. The UHPLC system was operated at a flow rate of 0.6 mL/min and an injection volume of 5 µL. Mobile phases consisted of 0.1% (v/v) formic acid in water (Eluent A) and 0.1% (v/v) formic acid in acetonitrile (Eluent B). Chromatographic separation was obtained as follows:
0 to 4 min: a linear from 5 to 98% of Eluent B; 4 to 6.5 min: isocratic at 98% B; 6.5 to 7 min: linear from 98 to 5% B; 7 to 9 min: isocratic at 5% B. The high-resolution mass spectra were acquired with electrospray ionization at both positive and negative modes. A scan range of m/z 120 to 1800 was chosen, and the maximum injection time was set to 200 ms. Ion source parameters were: spray voltage 3.5 kV, capillary temperature 320°C, RF level 40, sheath gas pressure 50 (N 2 > 95%), auxiliary gas 10 (N2 > 95%), auxiliary gas heater temperature 300°C. The value for the automatic gain control (AGC) target was set to 10 6, resolution was 60000, and chromatographic peak width (FWHM) was 15 s.
Calculation of the results from microsomal stability assay
Elimination rate constant (k) = (- gradient)
Half-life (t ) (min) = ௟௡
V (µL∙mg -1) = ௩௢௟௨௠௘ ௢௙ ௜௡௖௨௕௔௧௜௢௡ (µ௅) […]
Intrinsic clearance in liver microsomes (Cl ) (µL∙min∙mL -1protein) = ௏ × ௟௡ଶ […]
Intrinsic clearance (Cl ) (mL∙min -1∙kg -1) = ௟௡ × ௏ × ௠௚ ௠௜௖௥௢௦௢௠௔௟ ௣௥௢௧௘௜௡ × ௚ ௟௜௩௘௥ int ௧భ/మ ଵ଴଴଴ ௚ ௟௜௩௘௥ ௪௘௜௚௛௧ ௞௚ ௕௢ௗ௬ ௪௘௜௚௛௧
(52.5 mg protein∙ g -1 liver used for human; 22.0 g∙ kg -1 liver to body weight used for human) Hepatic extraction ratio (E ) = ୤౫ × େ୪౟౤౪
(fu: fraction of drug unbound in plasma, f u = 1 used for the calculation; Q: hepatic blood flow, 20.0 mL∙min-1∙kg -1 for human).

SMILES | GI50 [1] | GI50 [2] | CLint scaled at 1 µM [3] | half-life at 1 µM [3]
COC(=O)c1cc([N+](=O)[O-])c2sc(N3CCC4(CC3)OC[C@H](C)O4)nc(=O)c2c1 [Compound 6a] | 66.9 ± 12.6 µM | 80.6 ± 5 µM | 363 mL/min/kg | 0.0742 h
CC(C)OC(=O)c1cc([N+](=O)[O-])c2sc(N3CCC4(CC3)OC[C@H](C)O4)nc(=O)c2c1 [Compound 6c] | > 111 µM | > 111 µM | 61.1 mL/min/kg | 0.441 h
C[C@H]1COC2(CCN(c3nc(=O)c4cc(C(=O)N(C)C)cc([N+](=O)[O-])c4s3)CC2)O1 [Compound 7c] | > 115 µM | > 115 µM | 3 mL/min/kg | 8.89 h
CON(C)C(=O)c1cc([N+](=O)[O-])c2sc(N3CCC4(CC3)OC[C@H](C)O4)nc(=O)c2c1 [Compound 7f] | > 111 µM | 98.5 ± 3.3 µM | 11 mL/min/kg | 2.46 h
C[C@H]1COC2(CCN(c3nc(=O)c4cc(C(=O)O)cc([N+](=O)[O-])c4s3)CC2)O1 [Compound 8] | > 123 µM | > 123 µM | – | –
C[C@H]1COC2(CCN(c3nc(=O)c4cc(C#N)cc([N+](=O)[O-])c4s3)CC2)O1 [Compound 9] | 94.4 ± 5.9 µM | 49.9 ± 4.1 µM | 15.4 mL/min/kg | 1.75 h
C[C@H]1COC2(CCN(c3nc(=O)c4cc(I)cc([N+](=O)[O-])c4s3)CC2)O1 [Compound 10] | > 102 µM | > 102 µM | 19.1 mL/min/kg | 1.41 h
C[C@H]1COC2(CCN(c3nc(=O)c4cc(Br)cc([N+](=O)[O-])c4s3)CC2)O1 [Compound 11] | > 113 µM | > 113 µM | 18.4 mL/min/kg | 1.46 h
C[C@H]1COC2(CCN(c3nc(=O)c4cccc([N+](=O)[O-])c4s3)CC2)O1 [Compound 23] | > 138 µM | > 137 µM | 5.8 mL/min/kg | 4.62 h
